Test system: HIV-1 particle production
Test: Particle production (p24) in 293T cells transfected with pNL4-3 in the presence of stapled peptides
Assay type: cell-based
Settings: p24 in virions and cell lysates
Experimental: FIG. 10A-FIG. 10B show the mechanism of HIV-1 inhibition by Stapled peptides. […] (1) Transfection of pNL4-3 plasmid in to 293T cells in the presence of stapled peptides and determine the particle production by analyzing p24 in the supernatant and cell lysates. (2) Virions produced are analyzed for their infectivity in the absence of stapled peptides. (3) Virions are subjected to Transmission Electron Microscopy (TEM) to determine the particle morphogenesis. (4) Purified and concentrated virions are subjected to Western blot analysis for the presence of INI1.
We hypothesized that INI1-derived Stapled peptides and drugs target IN and disrupt IN/RNA and IN/INI1 interactions. […] To test this hypothesis and to determine the mechanism of inhibition by stapled peptides, we tested the effect of stapled peptides on late events (production of HIV-1 particles and particle morphogenesis) and further tested the infectivity of particles that are produced (FIG. 10a).

lys-Leu-Met-Thr-Pro-Glu-Met-Phe-S5-Glu-Ile-Leu-S5-Cys-Asp-Leu-Asn [SP38]
effect on particle production: did not affect

Reference: patent publication US20240317826A1, “COMPOSITIONS AND METHODS FOR TREATING AND/OR I[…] AGENT FOR TREATING HIV-1 INFECTIONS” (priority 2021, published 2024)
